Among the data in PubChem BioAssay AID220 (DTP/NCI, 2004) are T/C values, retold here.

Where “and” joins values, the source holds several entries; their conditions need not be identical. Identical values can stand only once. Results filed as inconclusive are left out.

For the experiment, the system named is CD8F1 mice, subcutaneous mammary adenocarcinoma, T/C%. Kind of experiment: NCI In Vivo Anticancer Drug Screen. Data for tumor model Mammary Adenocarcinoma CD8F1 (subcutaneous) in CD8F1. The note with it: higher = larger tumour. The method, then:
The antitumor activity of compounds was measured in mice bearing transplantable tumors. Survival or tumor size were measured and the results are expressed as the measurement made in the treated group (T) divided by the measurement made in the vehicle treated control group (C). The tumor model used in this assay is Mammary Adenocarcinoma CD8F1 (subcutaneous) in CD8F1

Setting [1] is: endpoint: median tumor weight (est.), dose: 12.5 mg/kg/injection, schedule: Q07DX005 (ip), vehicle: saline with Tween-80.
[2] abbreviates: endpoint: median tumor weight (est.), dose: 25.0 mg/kg/injection, schedule: Q07DX005 (ip), vehicle: saline with Tween-80.
The mark [3] stands for this setting: endpoint: median tumor weight (est.), dose: 50.0 mg/kg/injection, schedule: Q07DX005 (ip), vehicle: saline with Tween-80.
Setting [4] is: endpoint: median tumor weight (est.), dose: 200.0 mg/kg/injection, schedule: Q07DX005 (ip), vehicle: saline with Tween-80.
Where [5] appears, read: endpoint: median tumor weight (est.), dose: 6.25 mg/kg/injection, schedule: Q07DX005 (ip), vehicle: saline.
The mark [6] stands for this setting: endpoint: median tumor weight (est.), dose: 25.0 mg/kg/injection, schedule: Q07DX005 (ip), vehicle: saline.
Setting [7] is: endpoint: median tumor weight (est.), dose: 50.0 mg/kg/injection, schedule: Q07DX005 (ip), vehicle: saline.
The mark [8] stands for this setting: endpoint: median tumor weight change, dose: 125.0 mg/kg/injection, schedule: Q01DX001 (ip), vehicle: saline with Tween-80.
Where [9] appears, read: endpoint: median tumor weight change, dose: 250.0 mg/kg/injection, schedule: Q01DX001 (ip), vehicle: saline with Tween-80.
Setting [10] is: endpoint: median tumor weight (est.), dose: 6.25 mg/kg/injection, schedule: Q07DX005 (ip), vehicle: Klucel (hydroxypropylcellulose) (HPC).
The mark [11] stands for this setting: endpoint: median tumor weight (est.), dose: 12.5 mg/kg/injection, schedule: Q07DX005 (ip), vehicle: Klucel (hydroxypropylcellulose) (HPC).
Where [12] appears, read: endpoint: median tumor weight (est.), dose: 25.0 mg/kg/injection, schedule: Q07DX005 (ip), vehicle: Klucel (hydroxypropylcellulose) (HPC).
Where [13] appears, read: endpoint: median tumor weight (est.), dose: 50.0 mg/kg/injection, schedule: Q07DX005 (ip), vehicle: Klucel (hydroxypropylcellulose) (HPC).
Where [14] appears, read: endpoint: median tumor weight (est.), dose: 100.0 mg/kg/injection, schedule: Q07DX005 (ip), vehicle: Klucel (hydroxypropylcellulose) (HPC).
Where [15] appears, read: endpoint: median tumor weight (est.), dose: 200.0 mg/kg/injection, schedule: Q07DX005 (ip), vehicle: Klucel (hydroxypropylcellulose) (HPC).

Take `COc1ccc(S(=O)(=O)N/N=C/C(=O)O)cc1`: the T/C reads like this: (endpoint: median tumor weight (est.), dose: 6.25 mg/kg/injection, schedule: Q07DX005 (ip), vehicle: saline with Tween-80) 55 % of control; under setting [1], 198 % of control; under setting [2], 73 % of control and 82 % of control; under setting [3], 206 % of control; under setting [4], 44 % of control and 61 % of control.
Consider `CC1=NNC(=O)C1CCO` (stereo not given), for which the T/C reads like this: (endpoint: median tumor weight change, dose: 450.0 mg/kg/injection, schedule: Q01DX001 (ip), vehicle: Klucel (hydroxypropylcellulose) (HPC)) 102 % of control; (endpoint: median tumor weight change, dose: 900.0 mg/kg/injection, schedule: Q01DX001 (ip), vehicle: Klucel (hydroxypropylcellulose) (HPC)) 157 % of control; (endpoint: median tumor weight change, dose: 1800.0 mg/kg/injection, schedule: Q01DX001 (ip), vehicle: Klucel (hydroxypropylcellulose) (HPC)) 189 % of control; (endpoint: median tumor weight change, dose: 3600.0 mg/kg/injection, schedule: Q01DX001 (ip), vehicle: Klucel (hydroxypropylcellulose) (HPC)) 80 % of control.
Regarding `CC[N](CC)[Ge]([CH2]C)[CH2]C.CC[N](CC)[Ge]([CH2]C)[CH2]C`, the T/C runs as follows: under setting [5], 116 % of control; (endpoint: median tumor weight (est.), dose: 12.5 mg/kg/injection, schedule: Q07DX005 (ip), vehicle: saline) 74 % of control; under setting [6], 124 % of control; under setting [7], 94 % of control.
For the compound `CC(O)CCC(=O)c1ccoc1` (stereo not given), the T/C is 89 % of control (endpoint: median tumor weight change, dose: 3.32 mg/kg/injection, schedule: Q03HX003 (ip), vehicle: saline) and 101 % of control (endpoint: median tumor weight change, dose: 6.65 mg/kg/injection, schedule: Q03HX003 (ip), vehicle: saline).
Turning to `C=C(C)C(=NC(C)(C)C)Nc1ccccc1`, the T/C (endpoint: median tumor weight change, dose: 62.5 mg/kg/injection, schedule: Q01DX001 (ip), vehicle: saline with Tween-80) is 92 % of control; the T/C under setting [8] is 60 % of control; the T/C under setting [9] was 96 % of control.
`COc1ccc2c(c1)CCC(c1ccccc1)=C2c1ccc(OCCN2CCCC2)cc1`: the T/C reads like this: under setting [10], 119 % of control; under setting [11], 99 % of control and 103 % of control; under setting [12], 92 % of control and 111 % of control; under setting [13], 77 % of control and 80 % of control; under setting [14], 75 % of control and 95 % of control.
For `c1ccc2c(c1)[As]=c1ccccc1=[As]2` (stereo not given), the T/C (endpoint: median tumor weight change, dose: 60.0 mg/kg/injection, schedule: Q01DX001 (ip), vehicle: saline with Tween-80) was 159 % of control; the T/C (endpoint: median tumor weight change, dose: 120.0 mg/kg/injection, schedule: Q01DX001 (ip), vehicle: saline with Tween-80) was 158 % of control; the T/C (endpoint: median tumor weight change, dose: 240.0 mg/kg/injection, schedule: Q01DX001 (ip), vehicle: saline with Tween-80) is 31 % of control.
For the compound `Cc1c(N)nc([C@H](CC(N)=O)NC[C@H](N)C(N)=O)nc1C(=O)N[C@H](C(=O)N[C@H](C)[C@@H](O)CC(=O)N[C@H](C(=O)NC(O[C@@H]1O[C@@H](C)[C@@H](N)[C@@H](O)[C@H]1O)C(O)c1nc(-c2nc(C(=O)NCCCCN)cs2)cs1)[C@@H](C)O)[C@@H](O[C@@H]1O[C@@H](CO)[C@@H](O)[C@H](O)[C@@H]1O[C@H]1O[C@H](CO)[C@@H](O)[C@H](OC(N)=O)[C@@H]1O)c1c[nH]cn1` (stereo not given in full), the T/C is, setting by setting: (endpoint: median tumor weight (est.), dose: 1.0 mg/kg/injection, schedule: Q07DX005 (ip), vehicle: saline) 55 % of control; (endpoint: median tumor weight (est.), dose: 2.0 mg/kg/injection, schedule: Q07DX005 (ip), vehicle: saline) 14 % of control and 26 % of control; (endpoint: median tumor weight (est.), dose: 4.0 mg/kg/injection, schedule: Q07DX005 (ip), vehicle: saline) 18 % of control and 19 % of control; (endpoint: median tumor weight (est.), dose: 8.0 mg/kg/injection, schedule: Q07DX005 (ip), vehicle: saline) 5 % of control; (endpoint: median tumor weight (est.), dose: 16.0 mg/kg/injection, schedule: Q07DX005 (ip), vehicle: saline) 5 % of control; (endpoint: median tumor weight (est.), dose: 32.0 mg/kg/injection, schedule: Q07DX005 (ip), vehicle: saline) 5 % of control. Also, the T/C reads like this: (endpoint: median tumor weight change, dose: 4.0 mg/kg/injection, schedule: Q01DX001 (ip), vehicle: saline) 98 % of control; (endpoint: median tumor weight change, dose: 8.0 mg/kg/injection, schedule: Q01DX001 (ip), vehicle: saline) 55 % of control; (endpoint: median tumor weight change, dose: 16.0 mg/kg/injection, schedule: Q01DX001 (ip), vehicle: saline) 104 % of control; (endpoint: median tumor weight change, dose: 32.0 mg/kg/injection, schedule: Q01DX001 (ip), vehicle: saline) 52 % of control.
On to `Cn1/c2cc/c1=C(\c1ccc(S(=O)(=O)O)cc1)c1ccc([n-]1)/C(c1ccc(S(=O)(=O)O)cc1)=c1/cc/c([nH]1)=C(\c1ccc(S(=O)(=O)O)cc1)c1ccc([n-]1)/C=2c1ccc(S(=O)(=O)O)cc1.O.O=S(=O)(O)C(F)(F)F.[Cu+2]`, for which the T/C (endpoint: median tumor weight change, dose: 62.5 mg/kg/injection, schedule: Q01DX001 (ip), vehicle: saline) was 124 % of control.
Turning to `O=[N+]([O-])c1ccc(-n2[nH]nnc2=S)cc1`, the T/C was 101 % of control and 119 % of control under setting [8]; 112 % of control under setting [9].
`C=CCNc1ccc(C)cc1`: the T/C is 73 % of control under setting [10]; 77 % of control under setting [11]; 80 % of control under setting [12]; 57 % of control under setting [13]; 88 % of control under setting [14]; 62 % of control under setting [15].
Take `O=C(O)CC(=O)O.[NH-]C1CCCCC1[NH-].[Pt+2]` (stereo not given): the T/C (endpoint: median tumor weight (est.), dose: 20.0 mg/kg/injection, schedule: Q07DX005 (ip), vehicle: dextrose) was 14 % of control; the T/C (endpoint: median tumor weight (est.), dose: 40.0 mg/kg/injection, schedule: Q07DX005 (ip), vehicle: dextrose) was 38 % of control; the T/C (endpoint: median tumor weight (est.), dose: 80.0 mg/kg/injection, schedule: Q07DX005 (ip), vehicle: dextrose) is 67 % of control.
As for `CC(=O)OCC1(C)NC(=O)c2ccccc2O1` (stereo not given), the T/C was 18 % of control under setting [1]; 40 % of control under setting [2]; 18 % of control under setting [3]; 37 % of control (endpoint: median tumor weight (est.), dose: 100.0 mg/kg/injection, schedule: Q07DX005 (ip), vehicle: saline with Tween-80); 34 % of control under setting [4]; 24 % of control (endpoint: median tumor weight (est.), dose: 400.0 mg/kg/injection, schedule: Q07DX005 (ip), vehicle: saline with Tween-80).
As for `ClCCCN1CCCCC1CCl` (stereo not given), the T/C reads like this: (endpoint: median tumor weight (est.), dose: 1.56 mg/kg/injection, schedule: Q07DX005 (ip), vehicle: saline) 73 % of control; (endpoint: median tumor weight (est.), dose: 3.12 mg/kg/injection, schedule: Q07DX005 (ip), vehicle: saline) 123 % of control and 105 % of control; under setting [5], 71 % of control and 78 % of control; under setting [6], 53 % of control; under setting [7], 3 % of control.
Regarding `C1OC1CO[C@@H]1CO[C@H]2[C@@H]1OC[C@H]2OCC1CO1` (stereo not given in full), the T/C reads like this: under setting [11], 44 % of control; under setting [12], 53 % of control; (endpoint: median tumor weight (est.), dose: 25.0 mg/kg/injection, schedule: Q07DX005 (ip), vehicle: suspension in saline) 108 % of control; under setting [13], 84 % of control; (endpoint: median tumor weight (est.), dose: 50.0 mg/kg/injection, schedule: Q07DX005 (ip), vehicle: suspension in saline) 64 % of control; under setting [14], 108 % of control. Further, the T/C was 48 % of control (endpoint: median tumor weight (est.), dose: 100.0 mg/kg/injection, schedule: Q07DX005 (ip), vehicle: suspension in saline); 57 % of control under setting [15]; 51 % of control (endpoint: median tumor weight (est.), dose: 200.0 mg/kg/injection, schedule: Q07DX005 (ip), vehicle: suspension in saline); 16 % of control (endpoint: median tumor weight (est.), dose: 400.0 mg/kg/injection, schedule: Q07DX005 (ip), vehicle: Klucel (hydroxypropylcellulose) (HPC)); 9 % of control (endpoint: median tumor weight (est.), dose: 400.0 mg/kg/injection, schedule: Q07DX005 (ip), vehicle: suspension in saline).
